Test results reported in article PMC8151276, “An Integrated Approach toward NanoBRET Tracers for Analysis of GPCR Ligand Engagement” (Molecules, 2021).
Values belong to the compound of their own block, whether it stands above or below them.

Columns and labels:
Type in all cases: binding
[1] = molecular target: T1, XCR1 (Homo sapiens, UniProt P46094); test: NanoBRET screen HiBiT-XCR1 in HEK293
T1 construct: purchased Promega (in-house HiBiT-GPCR construct library, NanoBRET)
T1 sequence (P46094 1-333): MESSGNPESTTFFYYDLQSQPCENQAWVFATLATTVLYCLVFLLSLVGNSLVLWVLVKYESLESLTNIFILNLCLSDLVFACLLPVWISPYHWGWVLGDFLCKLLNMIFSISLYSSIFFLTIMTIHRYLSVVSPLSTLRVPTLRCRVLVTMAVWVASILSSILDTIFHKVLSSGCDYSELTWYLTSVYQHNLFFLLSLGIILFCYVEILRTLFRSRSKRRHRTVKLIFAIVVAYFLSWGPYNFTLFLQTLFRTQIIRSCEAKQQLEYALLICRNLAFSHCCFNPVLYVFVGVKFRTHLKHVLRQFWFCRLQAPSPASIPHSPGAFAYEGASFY
Experimental: (§1) Each tracer candidate was screened across the entire library of HiBiT-GPCR constructs using NanoBRET as the detection modality. As depicted in Figure 4A, the specificity of interactions was evaluated through decrease in BRET due to competitive displacement of a bound tracer by excess parental compound. Each tracer was analyzed for binding to each HiBiT-GPCR fusion in the absence and in the presence of competing parental compound. Briefly, HEK293 cells were transfected with HiBiT-GPCR constructs diluted into promoterless DNA to reduce expression and maximize translocation to the cell surface. Each tracer candidate was then screened at concentrations of 1 μM and 0.1 μM across cells expressing these fusions. Cells were treated for 1.5 h with tracer either alone or in the presence of 20 μM competing parental compound (i.e., control). BRET was measured upon addition of purified LgBiT and subsequent complementation with HiBiT genetically fused to a GPCR. The specificity of interactions was assessed through a decrease in BRET signal due to competitive displacement of the bound tracer. To further gauge the robustness of these interactions, the fold response over the control (i.e., BRETtracer/BRETcontrol) was calculated. We chose a 1.5-fold response, which translates to ≥7-fold signal over noise as the minimal threshold required to score an interaction as positive. […]. Below we highlight the screening results obtained for our exemplary fluorescent tracers based on Clozapine, Amitriptyline and AZD1283.
(§2) HiBiT-GPCR DNA constructs were diluted in 10 mM Tris pH 8 to a final concentration of 0.01 μg/μL, arrayed in 96-well plates and stored at −20 °C. For transfection, HEK293 cells were suspended in Opti-MEM (without phenol red) supplemented with 2% fetal bovine serum (Seradigm) and 100 units/mL penicillin–streptomycin (Gibco) at a final concentration of 220,000 cells/mL and dispensed into white 96-well plates at 90 μL/well. Subsequent transfections and screens were carried using an Agilent Bravo Automated Liquid Handling Platform. First, the 96-well HiBiT DNA arrays were diluted 25-fold in Opti-MEM (without serum or phenol red) to a final concentration of 0.0004 μg/μL and 20 μL of the diluted DNAs were transferred into new 96-well plates. Next, promoterless carrier DNA (1 μg/μL) was diluted 25-fold (0.04 μg/μL) and then dispensed into the diluted arrays at 20 μL/well. Following brief mixing, Viafect transfection reagent (Promega) diluted 16-fold into Opti-MEM was dispensed into the plates at 40 μL/well. After mixing by pipetting, plates were incubated for 10 min on the pipetting station deck. The DNA-transfection reagent complexes were then added to plates containing cells. To facilitate the screen, 10 μL of DNA-transfection reagent complexes were added in duplicates to the top 4 and bottom 4 rows, resulting in two identical 48-well arrays per plate. Plates with transfected cells were incubated for 18–20 h at 37 °C/5% CO2. A screen of each tracer across the entire library using two different concentrations requires duplicate plates of transfected cells. Depending on the number of tracers being screened, transfections can be scaled up using the same ratios. The next day, for each tracer, four 20× screening solutions in tracer dilution buffer (Promega) were prepared: two duplicates at final concentration of 20 μM and two duplicates at a final concentration of 2 μM. A competing unmodified compound was added to one of each duplicate at a final concentration of 400 μM. The four resulting solutions were diluted 4-fold in Opti-MEM without serum or phenol red to generate 5× solutions (5 µM and 0.5 µM tracer +/− 100 μM competing compound). To screen the library, a BioTek MultiFlo FX liquid dispenser was used to dispense 22.5 µL of tracer solution to the top 4 rows and 22.5 µL tracer + competing compound solution to the 4 bottom rows. Plates were briefly mixed on an orbital shaker and incubated for 1.5 h at room temperature. […]

[2] = molecular target: T2, P2RY13 (Homo sapiens, UniProt Q9BPV8); test: NanoBRET screen HiBiT-P2RY13 in HEK293
T2 construct: purchased Promega (in-house HiBiT-GPCR construct library, NanoBRET)
T2 sequence (Q9BPV8 1-354): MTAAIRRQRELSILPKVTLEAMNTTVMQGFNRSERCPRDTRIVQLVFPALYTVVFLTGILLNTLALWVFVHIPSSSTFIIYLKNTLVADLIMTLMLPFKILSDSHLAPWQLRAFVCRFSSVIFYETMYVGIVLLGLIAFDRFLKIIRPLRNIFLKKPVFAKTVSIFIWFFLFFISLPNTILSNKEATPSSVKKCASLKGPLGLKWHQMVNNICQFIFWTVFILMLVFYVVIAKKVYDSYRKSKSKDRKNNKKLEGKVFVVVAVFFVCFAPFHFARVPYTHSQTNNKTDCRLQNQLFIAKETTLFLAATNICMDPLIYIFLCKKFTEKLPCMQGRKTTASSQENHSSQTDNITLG
Experimental: as §1, §2

[3] = molecular target: T3, CCR7 (Homo sapiens, UniProt P32248); test: NanoBRET screen HiBiT-CCR7 in HEK293
T3 construct: purchased Promega (in-house HiBiT-GPCR construct library, NanoBRET)
T3 sequence (P32248 25-378): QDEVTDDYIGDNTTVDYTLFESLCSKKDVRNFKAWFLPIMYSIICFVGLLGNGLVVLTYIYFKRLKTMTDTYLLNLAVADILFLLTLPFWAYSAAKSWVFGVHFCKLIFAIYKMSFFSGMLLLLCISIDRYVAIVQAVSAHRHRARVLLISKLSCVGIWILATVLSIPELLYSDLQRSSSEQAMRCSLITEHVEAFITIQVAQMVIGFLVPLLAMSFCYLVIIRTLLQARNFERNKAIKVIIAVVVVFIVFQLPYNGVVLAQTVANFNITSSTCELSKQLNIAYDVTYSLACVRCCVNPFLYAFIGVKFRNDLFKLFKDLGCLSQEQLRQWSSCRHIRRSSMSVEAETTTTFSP
Experimental: as §1, §2

[4] = tracer at 0.1μM, listed as amitriptyline-b-2-NB590
[5] = tracer at 1μM, listed as amitriptyline-b-2-NB590

SMILES: CN(C)CCC=C1c2ccccc2CCc2ccc(C(=O)NCCNC(=O)CCOCCOCCOCCOCCNC(=O)CCc3ccc4n3[B-](F)(F)[N+]3=C(c5ccc[nH]5)C=CC3=C4)cc21 [Amitriptyline-b-2-NB590]
NanoBRET Fold Response [1, 4]: 0.92
NanoBRET Fold Response [1, 5]: 0.83
NanoBRET Fold Response [2, 4]: 1.08
NanoBRET Fold Response [2, 5]: 0.96
NanoBRET Fold Response [3, 4]: 1.00
NanoBRET Fold Response [3, 5]: 1.00

SMILES: CN(C)CCC=C1c2ccccc2CCc2ccc(C(=O)NCCNC(=O)CCOCCOCCOCCOCCNC(=O)CCc3ccc4n3[B-](F)(F)[N+]3=C(c5ccc[nH]5)C=CC3=C4)cc21 [Amitriptyline-a-2-NB590]
NanoBRET Fold Response ([1]; tracer at 0.1μM): 1.05
NanoBRET Fold Response ([1]; tracer at 1μM): 0.96
NanoBRET Fold Response ([2]; tracer at 0.1μM): 1.09
NanoBRET Fold Response ([2]; tracer at 1μM): 0.85
NanoBRET Fold Response ([3]; tracer at 0.1μM): 1.01
NanoBRET Fold Response ([3]; tracer at 1μM): 0.99

SMILES: O=C(CCc1ccc2n1[B-](F)(F)[N+]1=C(c3ccc[nH]3)C=CC1=C2)NCCOCCOCCNC(=O)OCCOCCN1CCN(C2=Nc3ccccc3Sc3ccccc32)CC1 [Quetiapine-a-2-NB590]
NanoBRET Fold Response ([1]; XCR1, tracer 0.1μM): 1.07
NanoBRET Fold Response ([1]; XCR1, tracer 1μM): 1.04
NanoBRET Fold Response ([2]; P2RY13, tracer 0.1μM): 0.98
NanoBRET Fold Response ([2]; P2RY13, tracer 1μM): 0.95
NanoBRET Fold Response ([3]; CCR7, tracer 0.1μM): 1.03
NanoBRET Fold Response ([3]; CCR7, tracer 1μM): 1.01

SMILES: Cc1cc2c(s1)Nc1ccccc1N=C2N1CCN(CCCNC(=O)CCOCCOCCOCCOCCNC(=O)CCc2ccc3n2[B-](F)(F)[N+]2=C(c4ccc[nH]4)C=CC2=C3)CC1 [Olanzapine-a-2-NB590]
NanoBRET Fold Response ([1]; XCR1, tracer 0.1μM): 0.88
NanoBRET Fold Response ([1]; XCR1, tracer 1μM): 1.27
NanoBRET Fold Response ([2]; P2RY13, tracer 0.1μM): 1.09
NanoBRET Fold Response ([2]; P2RY13, tracer 1μM): 0.86
NanoBRET Fold Response ([3]; CCR7, tracer 0.1μM): 1.01
NanoBRET Fold Response ([3]; CCR7, tracer 1μM): 1.05

SMILES: CN1CCN(C2=Nc3cc(Cl)ccc3Nc3ccc(CNC(=O)CCOCCOCCOCCOCCNC(=O)CCc4ccc5n4[B-](F)(F)[N+]4=C(c6ccc[nH]6)C=CC4=C5)cc32)CC1 [Clozapine-b-2-NB590]
NanoBRET Fold Response ([1]; XCR1, 0.1μM tracer): 0.94
NanoBRET Fold Response ([1]; XCR1, 1μM tracer): 1.18
NanoBRET Fold Response ([2]; P2RY13, 0.1μM tracer): 1.02
NanoBRET Fold Response ([2]; P2RY13, 1μM tracer): 0.99
NanoBRET Fold Response ([3]; CCR7, 0.1μM tracer): 1.00

NanoBRET Fold Response ([1]; 0.1μM tracer): 1.33
NanoBRET Fold Response ([1]; 1μM tracer): 1.18
NanoBRET Fold Response ([2]; 0.1μM tracer): 1.08
NanoBRET Fold Response ([2]; 1μM tracer): 1.08
NanoBRET Fold Response ([3]; 0.1μM tracer): 0.88
NanoBRET Fold Response ([3]; 1μM tracer): 0.96
SMILES: COc1ccc2c(n1)c(CCNC(C)=O)cn2CCNC(=O)CCc1ccc2n1[B-](F)(F)[N+]1=C(c3ccc[nH]3)C=CC1=C2 [Azamelatonin-1-NB590]

SMILES: O=C(CCc1ccc2n1[B-](F)(F)[N+]1=C(c3ccc[nH]3)C=CC1=C2)NCc1ccc(C(=O)NCCOCCOCCNCC(O)COc2cccc3ccccc23)cc1 (centres unmarked) [Propranolol-3-NB590]
NanoBRET Fold Response ([1]; XCR1, 0.1μM): 1.02
NanoBRET Fold Response ([1]; XCR1, 1μM): 0.97
NanoBRET Fold Response ([2]; P2RY13, 0.1μM): 0.90
NanoBRET Fold Response ([2]; P2RY13, 1μM): 0.97
NanoBRET Fold Response ([3]; CCR7, 0.1μM): 1.03
NanoBRET Fold Response ([3]; CCR7, 1μM): 1.01

NanoBRET Fold Response ([1]; XCR1, 0.1μM tracer): 1.01
NanoBRET Fold Response ([1]; XCR1, 1μM tracer): 0.98
NanoBRET Fold Response ([2]; P2RY13, 0.1μM tracer): 1.06
NanoBRET Fold Response ([2]; P2RY13, 1μM tracer): 0.94
NanoBRET Fold Response ([3]; CCR7, 0.1μM tracer): 1.01
NanoBRET Fold Response ([3]; CCR7, 1μM tracer): 0.99
SMILES: O=C(CCOCCOCCOCCOCCNC(=O)CCc1ccc2n1[B-](F)(F)[N+]1=C(c3ccc[nH]3)C=CC1=C2)NCCCN1CCN(C2=Nc3cc(Cl)ccc3Nc3ccccc32)CC1 [Clozapine-a-2-NB590]
